Key:
Assay type in all cases: biochemical
ACE1 [1] = system: ACE1
ACE1 [2] = system: ACE1; remark: listed apart in the source
ACE2 = target: T1, ACE2 (Mus musculus, UniProt Q8R0I0); assay: SELDI-TOF-MS ACE assay, kidney extract incubated with AngI (ACE2 activity); details: AngI + kidney extract + MLN 4760
T1 construct: Kidney extract (source of ACE1 & ACE2); from tissue; host or cells: kidney extract
Description: FIG. 3: SELDI-TOF-MS ACE assay. Kidney extract (source of ACE1 & ACE2) were incubated with AngI A: kidney extract control; B: AngI; C: AngI+kidney extract, showing peptides generated from ACE1 & ACE2; D: AngI+kidney extract+MLN 4760 (ACE2 inhibitor).

T1 sequence (Q8R0I0 18-805): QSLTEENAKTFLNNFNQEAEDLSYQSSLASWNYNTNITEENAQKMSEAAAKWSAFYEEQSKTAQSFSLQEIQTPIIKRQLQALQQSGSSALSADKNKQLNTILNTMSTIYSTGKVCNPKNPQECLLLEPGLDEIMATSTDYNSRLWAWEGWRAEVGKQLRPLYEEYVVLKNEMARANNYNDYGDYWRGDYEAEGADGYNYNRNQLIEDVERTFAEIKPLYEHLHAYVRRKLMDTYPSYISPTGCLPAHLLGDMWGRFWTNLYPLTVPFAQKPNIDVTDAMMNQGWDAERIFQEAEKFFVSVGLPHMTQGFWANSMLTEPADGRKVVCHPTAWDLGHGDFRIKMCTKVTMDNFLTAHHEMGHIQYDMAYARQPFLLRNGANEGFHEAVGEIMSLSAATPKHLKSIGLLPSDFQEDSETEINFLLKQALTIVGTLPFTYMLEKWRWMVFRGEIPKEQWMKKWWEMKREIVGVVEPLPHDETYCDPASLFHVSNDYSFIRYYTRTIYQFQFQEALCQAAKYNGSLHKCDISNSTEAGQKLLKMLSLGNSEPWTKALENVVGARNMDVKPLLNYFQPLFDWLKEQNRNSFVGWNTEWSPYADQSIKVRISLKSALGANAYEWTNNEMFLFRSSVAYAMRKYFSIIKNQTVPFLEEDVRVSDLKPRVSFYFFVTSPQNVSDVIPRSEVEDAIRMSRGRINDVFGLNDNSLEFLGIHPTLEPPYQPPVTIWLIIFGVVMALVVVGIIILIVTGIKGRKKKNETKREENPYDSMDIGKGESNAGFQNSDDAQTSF

## CC(C)C[C@H](N[C@@H](Cc1cncn1Cc1cc(Cl)cc(Cl)c1)C(=O)O)C(=O)O [MLN 4760]
ACE1 [1]
  effect on the formation of AngII: no effect
ACE1 [2]
  AngII level: increased
  effect on ACE1: without affecting ACE1
ACE2
  cleavage of AngI to Ang (1-7): inhibited

Reference: patent US20060257861A1 (priority 2005, published 2006)
